# Reference: PMC10135567, “New Indole-3-Propionic Acid and 5-Methoxy-Indole Carboxylic Acid Derived Hydrazone Hybrids as Multifunctional Neuroprotectors” (Antioxidants, 2023)
# Structures can show the parent of a compound that is named as a salt.
# Legend:
# [1] = Fe(II)-induced deoxyribose degradation assay; format: biochemical; details: 80 µM, 2-deoxyribose 0.5 mM, 0.1 mM FeCl2; lower = stronger antioxidant
# Procedure: (§1) The lipid peroxidation assay and a modification of the deoxyribose-degradation assay were used. Two types of measurement compositions in phosphate buffer (PB–K2HPO4/KH2PO4, pH 7.4) were prepared for both tests: (i) samples, containing the biologically relevant molecules (lecithin emulsion or deoxyribose), iron, and the tested hydrazones at the concentrations indicated below the figures; and (ii) controls, in which the tested hydrazones were omitted. The data for the sample activity were presented as a percentage of the control measurement.
# The deoxyribose (0.5 mM) damage was induced by adding FeCl2 (0.1 mM). The measurement compositions were incubated at 37 °C for 30 min. The next step comprised adding 0.5 mL of 2.8% trichloroacetic acid and 0.5 mL of thiobarbituric acid. Then, the samples were heated in boiling water for 20 min, and their absorbance was estimated at 532 nm (characteristic band for the generated chromophore) via Shimadzu UV-1601 UV-vis spectrophotometer.
# [2] = Fe(II)-induced lipid peroxidation assay (LP assay, TBARS); format: biochemical; details: 90 µM, lecithin 1 mg/mL, 0.1 mM FeCl2; lower = stronger antioxidant
# Procedure: as §1
# The thiobarbituric-acid reactive-substance colorimetric test was performed in a model system of Fe(II)-induced lipid peroxidation as an emulsion prepared from egg yolk phospholipids. Each sample contained 1 mg/mL of lecithin. LP was initiated using 0.1 mM FeCl2. After 30 min incubation at 37 °C, 0.5 mL of 2.8% trichloroacetic acid solution and 0.5 mL of 0.5% thiobarbituric acid solution were added, following a second incubation at 100 °C for 20 min. Centrifugation at 3000 rpm for 20 min at 4 °C was performed, and we determined the absorbance value of the supernatant at 532 nm via Shimadzu UV-1601 UV-VIS spectrophotometer.
# [3] = tested on: isolated rat-brain synaptosomes; test: 6-OHDA-induced neurotoxicity in isolated rat synaptosomes, synaptosomal viability; format: cell-based; details: Rattus norvegicus; 10 µM pre-incubation 30 min, then 150 µM 6-OHDA 1 h; read-out: synaptosomal viability (SV) preserved, as compared to 6-OHDA
# Procedure: (§2) This neurotoxicity model was based on the metabolism and auto-oxidation of 6-hydroxy dopamine responsible for the reactive oxygen species and quinones generation, ultimately leading to neurotoxicity and neurodegeneration. The experiment was performed by pre-incubation of the synaptosomes with 10 µM of the compounds for 30 min, followed by the addition of 150 µM 6-hydroxy dopamine for induction of neurotoxicity. After 1 h, they were centrifuged twice for 1 min at 15,000 × g. After the second wash, the precipitates were resolved with buffer B and glucose.
# [4] = MTT cell viability assay (cytotoxicity), bEnd3; format: cell-based, mouse; details: mouse, bEnd3 brain endothelial cells, 1–500 µM
# Procedure: Mouse-brain endothelial cell line bEnd3 [36] (CRL-2299) was purchased from the American Type Culture Collection (ATCC, Manassas, VA, USA). The cells were cultured in DMEM (Dulbeco’s modified essential medium) (cat. no. 30-2002, ATCC, Manassas, VA, USA), supplemented with 10% heat-inactivated FBS (cat. no. F7524, Sigma-Aldrich Co. LLC, St. Louis, MO, USA), 1 mM L-glutamine (cat. no. G7513, Sigma-Aldrich Co. LLC, St. Louis, MO, USA) and 1× Antibiotic-Antimycotic solution (penicillin: streptomycin: amphotericin B (100 U/mL: 0.10 mg/mL: 0.25 µg/mL) (cat. no. A5955, Sigma-Aldrich Co. LLC, St. Louis, MO, USA) at 37 °C in a humidified atmosphere containing 5% CO2. The cells were passaged in 75 cm^2 flasks every 3–5 days via trypsinization (StableCell Trypsin solution, cat. no. T2610, Sigma-Aldrich Co. LLC, St. Louis, MO, USA).
# (§3) Cell viability was assessed via the mitochondrial reductase-dependent reaction of (3-(4,5-dimethylthiazol-2-yl)- 2,5-diphenyl tetrazolium bromide (MTT, cat. no. 475989, Calbiochem, Merck KGaA, Darmstadt, Germany). The SH-SY5Y and bEnd3 cell lines were seeded in 96-well plates at a density of 0.7 × 10^4 (bEnd3) or 2 × 10^4 (SH-SY5Y) cells/well and allowed to adhere for 24 h at 37 °C, 5% CO2. Then, the cells were incubated with the compounds (1–500 μM) for a preset time (24 h). For the solvent, the control cells were treated with DMSO corresponding to the highest concentration of DMSO in the samples (0.5% DMSO) in order to exclude its cytotoxic effect on the cells. For each concentration, a set of at least 6 wells were used. After incubation, the solution from each well was exchanged with fresh culture medium (100 µL/well), containing the MTT reagent (0.5 mg/mL) and incubated for 3 h at 37 °C in a humidified atmosphere and 5% CO2. The obtained formazan crystals were dissolved in 100 µL/well of 5% formic acid in propan-2-ol solution (or DMSO). The absorbance was measured at 570 nm via multiplate reader Tecan Infinite F200 PRO (Tecan Trading AG., Männedorf, Switzerland) or Synergy 2 (BioTek Instruments, Inc., Highland Park, Winooski, VT, USA).
# (§4) Both the SH-SY5Y and bEnd3 cells were treated with the test compounds in a concentration range from 1 to 500 µM for 24 h.
# [5] = Superoxide radical scavenging, xanthine/xanthine oxidase/NBT system; format: biochemical
# Procedure: The 1 mL cuvette for the control contained 1 mM xanthine, 20 µL xanthine oxidase (100 IU/L), and 0.04 mM NBT [43, 44]. In the sample compositions, the tested hydrazones at different concentrations were added. All measurement compositions were incubated at 37 °C, and the absorbance was determined spectrophotometrically at 560 nm via Shimadzu UV-1601 UV-vis spectrophotometer.
# The potential capability of the investigated compounds to prevent the superoxide-anion radical-induced NBT reduction was investigated spectrophotometrically by xanthine-oxidase assay. The assay was carried out at the final concentration of the tested compounds, at 1, 10, 50, and 100 µM.
# [6] = O-phenanthroline Fe(II) chelation test; format: physicochemical; details: 200 µM compound, FeCl2
# Procedure: The Fe (II)-chelating activity of the tested hydrazones was determined by the O-phenanthroline method. A total of 1 mL sample solutions of 50 mM PB pH 7 contained 0.2 mM O-phenanthroline and 0.05 mM FeCl2 and 0.2 mM hydrazone. In the controls, the tested compounds were omitted. Absorbance was measured at 515 nm via GENESYS 50 UV-VIS spectrophotometer after incubation for 5 min at 37 °C. The data for the sample activity were presented as a percentage of the control measurement. Absorbance spectra of all the samples, the control, and the measurement compositions containing the tested hydrazones and Fe(II) at the concentrations used in the samples were measured.
# To explain the results of both systems of Fe(II)-induced oxidative damage, we studied the potency of the tested compounds to chelate-iron (Fe(II)). This was studied by spectrophotometric determination of free iron (Fe(II)) using the ortho-phenanthroline test, as 1,10-phenantroline reacts rapidly with Fe(II) ions in weakly acidic media, generating an orange–red complex (ferroin) with characteristic absorbance spectra (molar absorptivity 1.10.104 (α = 0.20) at ~max 512 nm and a molar ratio 3:1 (R: Fe(II))). The generated complex was stable, and the bound Fe(II) was resistant to oxidation. Lower absorbance of the reaction mixture indicated higher Fe^2+-chelating activity.
# [7] = MTT cell viability assay (cytotoxicity), SH-SY5Y; details: human, SH-SY5Y neuroblastoma cells
# Procedure: Neuroblastoma cell line SH-SY5Y (94030304) was acquired from the European Collection of Cell Cultures (ECACC, Salisbury, UK). Cells were cultured in a medium prepared with RPMI basic media supplemented with 10% heat-inactivated FBS (fetal bovine serum), 2 mM L-glutamine, 1% antibiotics (penicillin/streptomycin), and incubated at 37 °C in a humidified atmosphere containing 5% of CO2. The culture’s medium was replaced at a time interval of 2–3 days.
# as §3, §4
# [8] = tested on: isolated rat-brain synaptosomes; test: Synaptosomal viability (MTT), substances administered alone
# Procedure: (§5) Preparation of the synaptosomes was carried out by multiple centrifugations using the Percoll gradient. Homogenization of the brains was performed in 10 volumes of cold buffer 1, which contained 5 mM HEPES and 0.32 M sucrose (pH = 7.4), followed by centrifugation at different speeds. For preparation of the gradient, the synaptosomes were isolated by Percoll reagent. Synaptosomes were resuspended and incubated in buffer 2, which contained 290 mM NaCl, 0.95 mM MgCl2x6H2O, 10 mM KCl, 2.4 mM CaCl2xH2O, 2.1 mM NaH2PO4, 44 mM HEPES, and 13 mM D-glucose. Incubations were performed in a 5% CO2 + 95% O2 atmosphere. The method of Lowry et al., using bovine serum albumin as a standard content, was applied for determination of synaptosomal protein [51].
# Synaptosomal viability was monitored based on a (3-(4,5)-dimethylthiazol-2-yl)-2,5-diphenyl tetrazolium bromide) assay. After incubation with the compounds, synaptosomes were treated with 0.5 mg/mL solution of (3-(4,5)-dimethylthiazol-2-yl)-2,5-diphenyl tetrazolium bromide) for 10 min at […]. Then, the synaptosomes were centrifuged twice at 15,000× g for 1 min. The resulting formazan crystals were dissolved in DMSO (dimethyl sulfoxide), and the extinction was determined by spectrophotometric measurements at 580–660 nm. […]
# [9] = tested on: isolated rat-brain synaptosomes; test: Level of reduced glutathione (GSH) in isolated synaptosomes, substances administered alone
# Procedure: as §5
# After the treatment with the tested compounds, the glutathione levels of the synaptosomes were determined with an Ellman reagent (DTNB). The GSH levels were evaluated based on the synaptosomal sediment, precipitated with 5% TCA, and centrifuged for 10 min at 4000× g. GSH levels in the supernatant were measured spectrophotometrically at 412 nm by a Spectro UV-vis split spectrophotometer (LaboMed. Inc., Los Angelis, California, USA). […]
# [10] = tested on: isolated rat-brain synaptosomes; test: 6-OHDA-induced neurotoxicity in isolated rat synaptosomes, GSH level; format: cell-based; details: 10 µM pre-incubation 30 min, then 150 µM 6-OHDA 1 h
# Procedure: as §2
# SH-SY5Y cells = test: H2O2-induced oxidative stress model in SH-SY5Y cells; format: cell-based, human; details: H2O2 1 mM 15 min
# Procedure: The SH-SY5Y cells were seeded in 96-well plates at a density of 3.5 × 10^4/well in 100 μL of RPMI supplemented with FBS for 24 h. Then, the cell medium was aspirated, and the cells were treated with different concentrations of the compounds—1, 10, and 50 µM for 90 min. Afterwards, the SH-SY5Y cells were washed with PBS and were exposed to hydrogen peroxide (H2O2) (1 mM in PBS for 15 min) to induce oxidative stress. All well contents were replaced by fresh culture medium and incubated for 24 h. MTT assay was used to evaluate the amount of attached viable cells. Negative controls (cells without H2O2 treatment) were considered as 100% protection and H2O2-treated cells as 0% protection.
# To evaluate the possible neuroprotective effects of the compounds, the SH-SY5Y cells were pre-treated with different concentrations (1, 10, 50 µM) for 90 min and then exposed to H2O2 (1 mM) for 15 min. The cell viability of all compounds was measured to verify their protective effect against the toxicity of hydrogen peroxide.
Structure (SMILES),"absorbance ratio, % of the controls (deoxyribose degradation) [1]",absorbance ratio sample/control (lipid peroxidation) [2],viability at 10 µM [3],IC50 at 24 h [4],absorbance at 515 nm compared to the controls (Fe(II) chelation) [6],IC50 at 24 h [7],further results
"O=c1c(O)c(-c2ccc(O)c(O)c2)oc2cc(O)cc(O)c12 [quercetin, reference compound]",about 50%,23%,,,,,
"O=C(CCc1c[nH]c2ccccc12)NN=Cc1ccc(O)cc1O [Compound 3c, N′-(2,4-Dihydroxybenzylidene)-3-(1H-indol-3-yl)propanehydrazide]",did not induce a modulating effect,below 65%,33%,> 500 µM,"statistically identical absorbance values at 515 nm, as compared to the controls",275 µM,"melting point: 239 to 240 °C; absorbance ratio (NBT reduction, % of control) ([5]; 1, 10, 50 and 100 µM): did not influence the estimated absorbance ratio at any of the tested concentrations"
"NCCc1cc(O)c(O)cc1O [Compound 6-OHDA, 6-hydroxydopamine]",,,,,,,decrease of synaptosomal viability (SV) vs. non-treated synaptosomes ([8]; 150 µM): 55%; decrease of GSH level vs. non-treated synaptosomes ([9]; 150 µM): 50%
"C#CCN[C@@H]1CCc2ccccc21 [Rasagiline.HCl, Rasagiline]",,,67%,,,> 500 µM,"reduction of synaptosomal viability (SV) vs. non-treated synaptosomes ([8]; 100 µM): 25%; GSH level preserved, as compared to 6-OHDA [10]: 80%; reduction of GSH level vs. non-treated synaptosomes ([9]; 100 µM): did not decrease; protective effect: increased cell viability of SH-SY5Y vs. H2O2 group (SH-SY5Y cells; 10 µM pre-treatment 90 min): 40%; protective effect: increased cell viability of SH-SY5Y vs. H2O2 group (SH-SY5Y cells; 50 µM pre-treatment 90 min): 46%"
"O=C(CCc1c[nH]c2ccccc12)NN=Cc1ccc(O)c(O)c1 [Compound 3b, N′-(3,4-Dihydroxybenzylidene)-3-(1H-indol-3-yl)propanehydrazide]",,below 65%,33%,352 µM,"statistically identical absorbance values at 515 nm, as compared to the controls",265 µM,decrease of NBT reduction as compared to the controls ([5]; 100 µM (highest tested concentration)): more than 40%
